Measured values: article PMC5126700 (Scientific Reports, 2016)

Tests used:
[1] = target: T1, ERp57 (Homo sapiens, UniProt P30101); test: Isothermal Titration Calorimetry of ERp57 with silibinin; type: binding; settings: Figure 5b, ERp57 5 μM, silibinin 50 μM
T1 construct: we performed the isothermal titration calorimetry of the whole protein and its two mutants; made in house; host or cells: E. coli BL21 (pET21)
T1 sequence (P30101 25-505): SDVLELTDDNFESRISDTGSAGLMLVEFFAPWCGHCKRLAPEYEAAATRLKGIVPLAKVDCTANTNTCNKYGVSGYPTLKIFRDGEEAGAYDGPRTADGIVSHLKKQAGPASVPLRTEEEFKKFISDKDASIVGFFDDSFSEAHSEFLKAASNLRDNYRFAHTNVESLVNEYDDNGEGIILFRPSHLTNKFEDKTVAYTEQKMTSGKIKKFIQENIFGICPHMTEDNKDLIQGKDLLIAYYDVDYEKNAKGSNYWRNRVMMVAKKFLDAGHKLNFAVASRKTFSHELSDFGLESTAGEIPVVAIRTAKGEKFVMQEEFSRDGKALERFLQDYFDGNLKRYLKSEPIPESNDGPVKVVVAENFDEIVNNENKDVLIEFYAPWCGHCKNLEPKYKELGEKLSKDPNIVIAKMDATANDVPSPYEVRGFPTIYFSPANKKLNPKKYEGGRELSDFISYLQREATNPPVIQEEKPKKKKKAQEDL
Protocol: Both the protein and the ligands were in the same buffer (see Materials and Methods). […] (Lower panel) Integrated heats of reaction plotted against the molar ratio of total ligand concentration to total protein concentration. […] The integrated heat of reaction is plotted against the molar ratio of total ligand concentration to total protein concentration.
ITC experiments were performed at 25 °C using a MicroCal ITC200 microcalorimeter (MicroCal Inc., Northampton, MA, USA). […] Samples were centrifuged before the experiments to eliminate possible aggregates. Protein and ligand solutions were degassed before use. Titrations were performed at 25 °C. The protein solution was placed in the sample cell, and each ligand solution was loaded into the syringe injector. The titrations involved 19 injections of 2 μL at 180 s intervals. The syringe stirring speed was set at 1,000 rpm. The reaction was very fast, as shown by the immediate appearance of an endothermic sharp peak following the addition of ligand to the protein and its deletion mutants solution in the microcalorimetric titration experiment. Reference titrations of ligand into buffer were used to correct for heats of dilution. […] The values of ΔH were measured for each titration, and fitting the binding isotherms with a one-site binding model yielded the values of the association constant (Ka). […]

[2] = test system: ERp57; settings: cited from earlier work

Structure (SMILES): COc1cc(C2Oc3cc([C@H]4Oc5cc(O)cc(O)c5C(=O)[C@@H]4O)ccc3OC2CO)ccc1O (stereo partly drawn) [silibinin]
- n (best fit) [1]: 0.776 (±0.0183) sites/mole
- Kd ([1]; read-out: Ka (best fit) (converted)): 483 nM
- affinity for ERp57 compared to calcitriol [2]: at least two orders of magnitude lower
